Measurements published in article PMC6835953, “Formulation Composition and Process Affect Counterion for CSP7 Peptide” (Pharmaceutics, 2019).
Where two headings read alike, the source gives them in different places. Blank lines part the entries; values can stand above or below the molecule they belong to. Where no end group is shown, it is not given here.

Key:
[1] = Thermogravimetric analysis overlaid with DSC; details: after boiling at ~190 °C (melting at ~130 °C)
Protocol: Thermogravimetric Analysis (TGA) was performed for ammonium acetate and ammonium TFA using a TA Thermogravimetric Analyzer Q500 (TA, Instruments, New Castle, DE, USA). Standard aluminum pans were filled with about 5–7 mg of powder. Temperature ramp experiments were performed from 30 °C to 300 °C at a rate of 5 °C·min^−1 with a nitrogen purge at 50 mL·min^−1.
Differential scanning calorimetry (DSC) analysis was performed using a TA Instruments 175 Model Auto Q20 DSC. Samples of 5–7 mg were weighed and placed into standard aluminum pans. The scans were performed at a ramp rate of 5 °C·min^−1 in the range of 30–300 °C. During the analyses, high-purity nitrogen flowed through the sample chamber at a rate of 50 mL·min^−1.

[2] = cited from earlier work
physchem = assay type: physicochemical
Protocol: The samples were shaken on a vortex mixer for 5 min and on an orbital shaker at 100 rpm for 3 h. The samples were collected and centrifuged at 12,000 rpm for 15 min. The supernatants of the samples were collected and analyzed using HPLC as described in Section 2.6 below.
(§1) CSP7 was chemically analyzed with a Thermo Scientific™ Dionex™ UltiMate™ 3000 HPLC System (Thermo Scientific, Sunnyvale, CA, USA) with a wavelength of 220 nm. The two mobile phases were designated Phase A (0.1% trifluoroacetic acid in water) and Phase B (0.09% trifluoroacetic acid in a mixture of 20:80 water and acetonitrile). The HPLC gradient that operated at 1.0 mL·min^−1 ran from 25% to 35% for mobile Phase B for 20 min then equilibrated at 25% for 5 min. An Ultimate 3000 Autosampler was utilized to inject 20 μL samples. Injections were passed through a Phenomenex® Luna 5 μm C18(2) 100 Å, 150 mm × 4.6 mm (Phenomenex, Torrance, CA, USA), maintained at ambient temperature. The retention time of CSP7 was approximately 8.3 min. The standard curve of the CSP7 (concentrations of 0.015625–1.00 mg·mL^−1) were prepared. All analyses maintained linearity in the range tested. Chromeleon Version 6.80 software (Thermo Scientific) was used to process all chromatography data.

[3] = Water sorption-desorption isotherm (dynamic vapor sorption); assay type: physicochemical; details: bulk powder, 25 °C, sorption-desorption cycle
Protocol: Water sorption isotherms at 25 °C were determined for lyophilized formulations using a dynamic vapor sorption (DVS-1) microbalance (Surface Measurement Systems, London, UK). A quartz pan was filled with about 8–10 mg of powder. Samples were dried with nitrogen gas until a baseline was established less than 0.002% change in dm/dt for 120 min. Each formulation was run through a full sorption-desorption cycle from 0% to 90% RH in steps of 10% RH at 25 °C. Humidity was increased/decreased by 10% after equilibrium was reached, as determined by a dm/dt less than 0.0075% within an interval of 5 min. Sorption-desorption isotherms were calculated and plotted based on their percent change in mass compared to the initial dry formulation weight (Equation (2)):(2) % Mass sorption/desorption =(Increase or decrease in mass from water sorption/desorption/mass of dry powder at initial equilibration (0% RH))× 100

[4] = assay type: physicochemical; details: DPBS; for Recovery of CSP7 in the aggregates / Recovery of CSP7 in the supernatant: 12 h shaking
Protocol: (§2) The peptide solution was prepared in DPBS and TBS at 0.5 mg·ml^−1 of free peptide. The ammonium hydroxide was added to the solution to dissolve the peptide until a clear solution was obtained.
The peptide solutions were shaken on a VWR standard orbital shaker model 1000 (Radnor, PA, USA) at 200 rpm at 5 °C and 25 °C. The samples were collected at 0.5, 1, 3, 6, and 12 h, and they were analyzed using HPLC as described in Section 2.6 below. The CSP7 aggregates were also collected and analyzed using ^1H-NMR as described in Section 2.14 below.
as §1

[5] = Molar ratio of counterions to CSP7 by solution 1H/19F NMR; assay type: physicochemical; details: bulk powder, initial vs after exposure to 90% RH, Equation (6)
Protocol: We acquired ^1H-NMR spectra using a Varian® NMR 600 MHz Spectrometer (Agilent Inc., Palo Alto, CA, USA) at 25 °C. The lyophilized samples were reconstituted in deuterium oxide at 1.0 mg·mL^−1. We added 5 μL of 1 N NaOH/D2O was added to the sample to dissolve the peptides. Solutions were then transferred to 5 mm NMR tubes for NMR data acquisition. Chemical shifts were referenced to a residual solvent, H2O, at 4.61 ppm. At this time, the ^1H-NMR spectra were acquired using an Agilent Direct Drive 600 spectrometer, operating at a proton frequency of 599.75 MHz (14.1 T) at 298 K, equipped with an AutoX DB probe. All ^1H-NMR spectra were recorded in D2O after 128 cycles for each sample. The molar ratio of counterion to peptide was calculated according to the peak area of the methyl group of CSP7 (0.85, 0.93, and 1.03 ppm; 18 H atoms in total) and the methyl group of the acetate counterion (1.75 ppm; 3 H atoms). […]
We acquired ^19F-NMR spectra using a Varian® NMR 600 MHz Spectrometer (Agilent Inc., Palo Alto, CA, USA) at 25 °C. […] All ^19F NMR spectra were recorded in D2O after 512 cycles for each sample. The molar ratio of counterion to peptide was calculated according to the peak area of fluorine atoms of the trifluoroacetate counterion (−75.5 ppm, 3 F atoms) and the […] (−107.7, −110.9, and −133.5 ppm; 1F atom each). […]

[6] = assay type: physicochemical
Protocol: as §2
Freeze-thaw cycles were studied at −20 °C and −80 °C. The peptide solutions were frozen at each temperature for 1 h and then thawed at room temperature (25 °C) for 1 h. The freeze-thaw cycle was repeated for 5 cycles. The samples were collected at the end of each cycle and analyzed using HPLC as described in Section 2.6 below.
as §1

[7] = Solution storage stability (HPLC recovery); assay type: physicochemical
Protocol: as §2
The peptide solutions were stored at −80 °C, −20 °C, 2−8 °C, and at room temperature (25 °C). The samples were collected after 24 h and 48 h and analyzed using HPLC as described in Section 2.6 below.
as §1

Molecule: N.O=C(O)C(F)(F)F [ammonium TFA]
- Mass remaining in TGA [1]: 0%

Molecule: CC(=O)O.N [ammonium acetate]
- Vapor pressure ([2]; at 25 °C): 13.9 mm Hg
- Boiling point [2]: 138.5 °C

- Solubility (physchem; 3 h, pH 10): 4134 ± 320 µg/mL
- solubility at 3 h (physchem; pH 8, Solubility): 1220 ± 24 µg/mL
- Decrease in weight in moisture desorption isotherm compared to initial weight [3]: no change in weight
Molecule: FTTFTVT [CSP7 TFA]

- Recovery of CSP7 in the aggregates ([4]; 5 °C): 31.7 ± 2.3%
- Recovery of CSP7 in the supernatant ([4]; 5 °C): 67.8 ± 5.8%
- Recovery of CSP7 in the aggregates ([4]; 25 °C): 38.3 ± 2.8%
- Recovery of CSP7 in the supernatant ([4]; 25 °C): 59.7 ± 1.5%
- Shaking time after which peptide aggregation was found ([4]; orbital shaker, 5 °C and 25 °C): 6 h
- solubility at 3 h (physchem; pH 2, Solubility): 701 ± 153 µg/mL
- solubility at 3 h (physchem; pH 3.5, Solubility): 241 ± 7 µg/mL
- solubility at 3 h (physchem; pH 4.5, Solubility): 160 ± 3 µg/mL
- solubility at 3 h (physchem; pH 5.5, Solubility): 174 ± 16 µg/mL
- solubility at 3 h (physchem; pH 6.5, Solubility): 178 ± 13 µg/mL
- solubility at 3 h (physchem; pH 7.5, Solubility): 347 ± 14 µg/mL
- solubility at 3 h (physchem; pH 10, Solubility): 2880 ± 201 µg/mL
- Percentage of mass loss calculated from NMR molar ratios of acetate to CSP7 [5]: 6.37%
- Decrease in weight in moisture desorption isotherm compared to initial weight [3]: 6.36%
- CSP7 remaining in DPBS and TBS [6]: about 100%
- Recovery in bulk solution after freeze-thaw ([6]; DPBS, −20 °C, cycle 1): 100.3 ± 0.2%
- Recovery in bulk solution after freeze-thaw ([6]; DPBS, −20 °C, cycle 2): 100.7 ± 0.1%
- Recovery in bulk solution after freeze-thaw ([6]; DPBS, −20 °C, cycle 3): 100.7 ± 0.1%
- Recovery in bulk solution after freeze-thaw ([6]; DPBS, −20 °C, cycle 4): 101.0 ± 0.2%
- Recovery in bulk solution after freeze-thaw ([6]; DPBS, −20 °C, cycle 5): 101.3 ± 0.2%
- Recovery in bulk solution after freeze-thaw ([6]; DPBS, −80 °C, cycle 1): 99.8 ± 0.2%
- Recovery in bulk solution after freeze-thaw ([6]; DPBS, −80 °C, cycle 2): 100.1 ± 0.1%
- Recovery in bulk solution after freeze-thaw ([6]; DPBS, −80 °C, cycle 3): 100.2 ± 0.2%
- Recovery in bulk solution after freeze-thaw ([6]; DPBS, −80 °C, cycle 4): 100.4 ± 0.1%
- Recovery in bulk solution after freeze-thaw ([6]; DPBS, −80 °C, cycle 5): 100.9 ± 0.1%
- Recovery in bulk solution after freeze-thaw ([6]; TBS, −20 °C, cycle 1): 99.4 ± 0.3%
- Recovery in bulk solution after freeze-thaw ([6]; TBS, −20 °C, cycle 2): 99.6 ± 0.1%
- Recovery in bulk solution after freeze-thaw ([6]; TBS, −20 °C, cycle 3): 99.7 ± 0.2%
- Recovery in bulk solution after freeze-thaw ([6]; TBS, −20 °C, cycle 4): 99.8 ± 0.2%
- Recovery in bulk solution after freeze-thaw ([6]; TBS, −20 °C, cycle 5): 100.2 ± 0.1%
- Recovery in bulk solution after freeze-thaw ([6]; TBS, −80 °C, cycle 1): 99.9 ± 0.3%
- Recovery in bulk solution after freeze-thaw ([6]; TBS, −80 °C, cycle 2): 100.3 ± 0.2%
- Recovery in bulk solution after freeze-thaw ([6]; TBS, −80 °C, cycle 3): 100.4 ± 0.2%
- Recovery in bulk solution after freeze-thaw ([6]; TBS, −80 °C, cycle 4): 100.7 ± 0.2%
- Recovery in bulk solution after freeze-thaw ([6]; TBS, −80 °C, cycle 5): 100.6 ± 0.4%
- Recovery in bulk solution after storage ([7]; DPBS, 24 h, 5 °C): 99.9 ± 0.1%
- Recovery in bulk solution after storage ([7]; DPBS, 24 h, 25 °C): 100.1 ± 0.1%
- Recovery in bulk solution after storage ([7]; DPBS, 24 h, −20 °C): 100.2 ± 0.8%
- Recovery in bulk solution after storage ([7]; DPBS, 24 h, −80 °C): 100.0 ± 0.1%
- Recovery in bulk solution after storage ([7]; DPBS, 48 h, 5 °C): 99.9 ± 0.1%
- Recovery in bulk solution after storage ([7]; DPBS, 48 h, 25 °C): 99.9 ± 0.3%
- Recovery in bulk solution after storage ([7]; DPBS, 48 h, −20 °C): 100.3 ± 0.7%
- Recovery in bulk solution after storage ([7]; DPBS, 48 h, −80 °C): 100.0 ± 0.1%
- Recovery in bulk solution after storage ([7]; TBS, 24 h, 5 °C): 100.1 ± 0.2%
- Recovery in bulk solution after storage ([7]; TBS, 24 h, 25 °C): 100.2 ± 0.3%
- Recovery in bulk solution after storage ([7]; TBS, 24 h, −20 °C): 100.2 ± 0.2%
- Recovery in bulk solution after storage ([7]; TBS, 24 h, −80 °C): 100.1 ± 0.2%
- Recovery in bulk solution after storage ([7]; TBS, 48 h, 5 °C): 100.1 ± 0.1%
- Recovery in bulk solution after storage ([7]; TBS, 48 h, 25 °C): 100.3 ± 0.1%
- Recovery in bulk solution after storage ([7]; TBS, 48 h, −20 °C): 100.5 ± 0.2%
- Recovery in bulk solution after storage ([7]; TBS, 48 h, −80 °C): 100.5 ± 0.4%
- Recovery of CSP7 in DPBS and TBS ([7]; after 48 h storage at −80 °C, −20 °C, 5 °C and 25 °C): about 100%
Molecule: FTTFTVT [CSP7 acetate]
